Drawing on PubChem BioAssay AID586 (The Scripps Research Institute Molecular Screening Center, 2007), this text covers IC50 for 66 compounds.

Active and inactive are the calls of the source. No rule for the calls is given here. A value given as a limit tells only on which side of the number the result lay.

For the assay, the system named is antigen receptor-induced NF-kappaB activation reporter, cells. The assay can be described thus: inhibitors of antigen receptor-triggered NF-kB signaling, dose response, cell-based (AID 586).

As a reminder, the IC50 is the midpoint of a concentration-inhibition curve.

As for `O=C(NC1=NCCS1)C1COc2ccccc2O1` (stereo unspecified), the IC50 is 2420 nM.
For the compound `Cc1cccc(-n2ncc3c(N(C)C4CCCCC4)ncnc32)c1`, the half-inhibitory concentration (IC50) was 6590 nM.
For `COc1cc(C(=O)N2CCN(c3cc(Cl)ccc3Cl)CC2)cc(OC)c1OC`, the IC50 is > 30000 nM (inactive).
For the compound `CCCCn1c(SCc2c(C)noc2C)nc2cc(S(N)(=O)=O)ccc21`, the IC50 was 2600 nM.
As to `CCCN1C=CC(=C2C(=O)c3ccccc3C2=O)C=C1`, the concentration for half-maximal inhibition (IC50) is 1040 nM.
The figure for `Cc1oc(-c2ccccc2Cl)nc1CSCC(=O)N1CCCC1` is 1160 nM.
The figure for `Cc1ccc(-c2nc(-c3ccccn3)no2)cc1` is 2060 nM.
With `COc1cccc(NC(=O)CSc2nnc(-c3cc(C)n(-c4ccccc4)c3C)o2)c1` the figure was > 9970 nM (inactive).
On to `O=C(c1ccc(Cl)cc1)N1CCCCC(Sc2nnc(-c3ccc4c(c3)OCO4)o2)C1=O` (stereo unspecified), for which the IC50 was 1240 nM.
On to `CCOc1ccc(-c2nc(CSCC(=O)NCc3ccco3)c(C)o2)cc1`, for which the concentration for half-maximal inhibition (IC50) was 1830 nM.
For `c1ccc(-c2noc(-c3ccc4c(c3)OCO4)n2)nc1`, the IC50 was > 30000 nM (inactive).
With `COc1cccc(-c2nnc3n2N=C(C(C)(C)C)CS3)c1` the figure was 3280 nM; with `COCCn1c(C)cc(C(=O)CSc2nnc(C)s2)c1C`, 4100 nM.
The figure for `COc1ccc(C(=O)NC(=O)Nc2cc(C)ccn2)cc1` is 3900 nM; for `Oc1c(C(Nc2nc3ccccc3s2)c2ccco2)ccc2cccnc12` (stereo unspecified) it is 1710 nM; for `CC(C)c1nnc(NC(=O)c2c(O)c3cccc4c3n(c2=O)CCC4)s1` it is > 30000 nM (inactive).
With `Cc1cc(C(=O)CN2C(=O)c3ccccc3S2(=O)=O)c(C)n1CC1CCCO1` (stereo unspecified) the figure was 310 nM; with `Cc1cccc2cc(CN(Cc3cccs3)C(c3nnnn3C3CCCC3)C(C)C)c(=O)[nH]c12` (stereo unspecified), 8420 nM; with `CCNC(=O)CCc1nc(-c2ccc(C(C)(C)C)cc2)no1`, 1610 nM.
Take `Cc1ccc(-c2nsc3c(N4CCC(C(N)=O)CC4)ncnc23)cc1`: the IC50 was > 30000 nM (inactive).
Consider `CCN1C=CC(=C2C(=O)c3ccccc3C2=O)C=C1`, for which the IC50 is 4750 nM.
The figure for `CCOC(=O)c1ccccc1NC(=O)Cn1c(-c2nonc2N)nc2ccccc21` is 11600 nM (inactive); for `O=C(NCc1cccs1)c1nc2c(nnn2Cc2ccccc2Cl)c(=O)[nH]1` it is 2320 nM; for `c1ccc(-c2noc(-c3ccc4ccccc4c3)n2)nc1` it is 1400 nM.
As to `Cc1oc2cc3c(C(=O)OCCN(C)C)c(C)oc3cc2c1C(=O)OCCN(C)C`, the IC50 was 438 nM.
Regarding `Cc1cc(C(=O)OCC(=O)NCc2ccco2)c(C)n1-c1ccccc1`, the IC50 was > 30000 nM (inactive).
The figure for `COc1cccc(Oc2cnc(N)nc2-c2ccc(OC)cc2O)c1` is 14600 nM (inactive); for `CCN(CC)c1ccc2cc(-c3nc4ccccc4n3C)c(=O)oc2c1` it is > 9970 nM (inactive); for `COc1cc(C2C(C#N)=C(N)Oc3cc(N(C)C)ccc32)cc2c1OCO2` (stereo unspecified) it is 766 nM.
The figure for `COc1ccccc1-c1nnc2sc(-c3ccc(N(C)C)cc3)nn12` is > 9970 nM (inactive).
As to `O=C(O)c1cccc(COc2ccc(CO)cc2Cl)c1`, the IC50 is 252 nM.
The figure for `Cc1ccc(-c2cnc(NC(=O)CCC(=O)N3CCCCC3)n2C)cc1` is 953 nM; for `COc1ccccc1C(=O)N1CCN(c2cccc(Cl)c2)CC1` it is 17900 nM (inactive); for `Cc1ccc2nc(-c3ccccc3)cn2c1` it is 1150 nM.
Take `CCCOc1ccccc1C1CC(=O)Nc2cc3c(cc21)OCCO3` (stereo unspecified): the IC50 was 25000 nM (inactive).
In the case of `COc1cccc(C=Nc2cccnc2)c1O`, the IC50 is > 30000 nM (inactive).
The figure for `Cc1cc(C)nc(N2CCC(C(=O)NCCc3ccc(F)cc3)CC2)n1` is > 30000 nM (inactive); for `COc1ccc(C2=Nn3c(nnc3-c3ccccc3OC)SC2)cc1OC` it is 1420 nM.
With `CCOc1ccccc1NC(=O)Cn1nnc(C(=O)NCc2ccco2)c1N` the figure was 1350 nM; with `c1ccc(-c2cccc(-c3ccccn3)n2)nc1`, 1090 nM; with `O=C(/C=C\Nc1ccc2c(c1)OCO2)c1ccccn1`, 3030 nM.
The figure for `NC(=O)c1sc2nccc(Nc3ccccc3)c2c1N` is 8970 nM.
`CC1CCCN(c2ncnc3c2cnn3-c2ccc(Cl)cc2)C1` (stereo unspecified): the IC50 is 73 nM.
With `CSc1nnc2c3ccccc3n(CCc3ccccc3)c2n1` the figure was 10300 nM (inactive); with `Cc1c(C(=O)OCCOC(C)C)[nH]c2c1C(=O)CC(c1ccco1)C2` (stereo unspecified), 1670 nM; with `CNC(=O)CCc1nc(-c2ccc(C(C)(C)C)cc2)no1`, 17000 nM (inactive).
On to `COc1ccc(OCc2cccc(C(=O)O)c2)cc1`, for which the concentration for half-maximal inhibition (IC50) was 257 nM.
Regarding `O=C(Nc1nc2ccccc2[nH]1)c1ccccc1F`, the IC50 was 2280 nM.
The figure for `CCN(CC)c1ccc2cc(NC(=O)CCC(=O)O)c(=O)oc2c1` is > 9970 nM (inactive).
As for `N#CC1=C2SCC(O)(c3ccccc3)N2C(=O)CC1c1cccs1` (stereo unspecified), the 50% inhibitory concentration (IC50) was 5020 nM.
Regarding `CCN(CC)c1ccc(-c2nn3c(-c4ccccc4OC)nnc3s2)cc1`, the IC50 is 819 nM.
With `O=C(O)[C@@H]1CCCC[C@@H]1C(=O)N1CCc2ccccc2C1CN1C(=O)c2ccccc2C1=O` (stereo partly specified) the figure was > 30000 nM (inactive); with `CCOC(=O)c1[nH]c(C)c(C(=O)c2cc(F)ccc2F)c1C`, > 9970 nM (inactive); with `CCCN(CCC)S(=O)(=O)c1ccc(C(=O)Nc2nnc(-c3cccc(OC)c3)o2)cc1`, 4510 nM.
With `CC1CCN(c2nc3ccc(C(=O)O)cc3s2)CC1` the figure was 203 nM; with `CN(C)c1ccc2c(c1)OC(N)=C(C#N)C2c1cccc(F)c1` (stereo unspecified), 1650 nM; with `CCOC(=O)c1[nH]c2c(c1C)C(=O)CC(c1ccco1)C2` (stereo unspecified), 316 nM.
In the case of `CC(C)(C)c1ccc(-c2noc(CCC(N)=O)n2)cc1`, the IC50 is 300 nM.
With `O=C(CN1C(=O)c2ccccc2S1(=O)=O)N1CCc2ccccc21` the figure was 2260 nM.
As to `Cc1nn(Cc2ccccc2Cl)c(C)c1C(=O)Nc1nnc(C2CC2)s1`, the IC50 was 2500 nM.
With `CCOC(=O)C(C(C)=O)c1c(Br)c(O)c(O)c2c(C(=O)c3ccc(C)cc3)coc12` (stereo unspecified) the figure was 8330 nM; with `COc1cc(C2C(C#N)=C(C)NC3=C2C(=O)c2ccccc23)cc(OC)c1OC` (stereo unspecified), 6610 nM.
The figure for `CCOc1ccc(OCc2cccc(C(=O)N3CCOCC3)c2)cc1` is 2570 nM; for `Cc1csc(NC(=O)c2sc3nc(-c4cccs4)ccc3c2N)n1` it is 565 nM.
The figure for `O=C1NC(Nc2nc3ccccc3s2)(C(F)(F)F)C(=O)N1C1CCCCC1` (stereo unspecified) is > 30000 nM (inactive); for `Cc1cc(-n2c(C)cc(C(=O)CSc3ncnc4ccccc34)c2C)no1` it is > 30000 nM (inactive).
